Source: paper PMC6897958, “Structural basis of ligand selectivity and disease mutations in cysteinyl leukotriene receptors” (Nature Communications, 2019)

Columns and labels:
CysLT2R [1] = settings: Supplementary Table 3 ref ref.2; cited from earlier work
CysLT1R [2] = settings: Supplementary Table 3 ref ref.2; cited from earlier work
CysLT1R [3] = assay: IC50 toward CysLT1R of the benzoxazine SAR series, quoted from the literature; settings: CysLT1R over CysLT2R; SAR series of ref [30]
CysLT2R [4] = assay: IC50 toward CysLT2R of the benzoxazine SAR series, quoted from the literature; settings: CysLT2R over CysLT1R; SAR series of ref [30]
CysLT1R wild type = CysLT1R wild type (Homo sapiens, UniProt Q9Y271); assay: cell-based; settings: HEK293, read-out: % IP1 production (normalized), single replicate values, log[Pranlukast] -11 M; CysLT1-wt
Sequence of CysLT1R wild type (Q9Y271 whole entry): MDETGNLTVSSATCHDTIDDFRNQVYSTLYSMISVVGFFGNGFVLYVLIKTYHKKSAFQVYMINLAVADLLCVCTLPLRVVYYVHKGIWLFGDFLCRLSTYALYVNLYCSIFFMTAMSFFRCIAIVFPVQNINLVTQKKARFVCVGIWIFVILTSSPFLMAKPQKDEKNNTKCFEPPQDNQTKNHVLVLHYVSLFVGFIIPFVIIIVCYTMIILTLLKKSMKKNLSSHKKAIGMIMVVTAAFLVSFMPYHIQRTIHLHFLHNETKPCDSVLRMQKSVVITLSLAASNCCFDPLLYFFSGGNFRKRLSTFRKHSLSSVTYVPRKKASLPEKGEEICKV

Which IC50 (CysLT2R [1]) does the source give for `O=C(O)CCC(=O)N1C[C@@H](C(=O)O)Oc2c(NC(=O)c3ccc(OCCCCc4ccccc4)cc3)cccc21` [cpd 13e] here?
Its IC50 is 1800 nM.

And the IC50 (CysLT1R [2])?
Its IC50 is < 1 nM.

And the “selectivity for CysLT1R” value (CysLT1R [3])?
The value was 1,800 fold.

With `O=C(O)CCCN1C[C@@H](C(=O)O)Oc2c(NC(=O)c3ccc(OCCCCCc4ccccc4)cc3)cccc21` [cpd 15b] as the compound, how does the IC50 (CysLT2R [1]) read?
The IC50 was 0.62 nM.

And the IC50 (CysLT1R [2])?
Its IC50 is 120 nM.

What about the “selectivity for CysLT2R” value (CysLT2R [4]) of the same compound?
The value was 200 fold.

Which remaining activity at 10 pM (CysLT1R wild type) does the source give for `O=C(Nc1cccc2c(=O)cc(-c3nnn[nH]3)oc12)c1ccc(OCCCCc2ccccc2)cc1` [pranlukast] here?
Its remaining activity at 10 pM is 94.3%.
